Assay results reported in patent publication US5306808A, “Peptide derivatives having vasodilating activity” (Takeda Chemical Industries, Ltd., priority 1991, dated 1994).
pEC50: −log10 of the molar value. Where a SMILES comes first, the peptide text is derived from it. Bridges are numbered along the chain shown (N, C = ends).

Legend:
porcine coronary artery = assay type: cell-based; details: for Constrictor activity (Relative potency): ET-1 = 100; for Maximum Constriction (% 60 mM KCl): normalized to constriction response to 60 mM KCl
Procedure: Each of helical strips 2 mm×15 mm prepared from the coronary right ramus circumflexus from which the adventitial connective tissues and the endothelial cells were removed was set to each of 4 ml organ baths. Its tension was detected by a force displacement transducer UL-10GR (Minebea), and recorded by a polygraph (NEC Sanei). The organ baths were maintained at 37° C., and filled with a Krebs-Henseleit solution (composition:118 mM NaCl, 4.7 mM KCl, 2.5 mM CaCl2, 1.2 mM KH2 PO4, 25.0 mM NaHCO3, 1.2 mM MgSO4, 10.0 mM glucose) gassed with 95% O2 and 5% CO2.
A tension of 1.25 to 1.5 g was applied to each of the strips, followed by equilibration for 1.5 hours. 60 mM KCl was repeatedly applied thereto at intervals of 30 minutes until the constriction response became constant. After additional equilibration for 1.5 hours, a sample for assay was given. The constriction of the strips was normalized by the constriction response of the individual strips to 60 mM KCl and statistically processed.
(2) As to the antagonist property or the agonist property of the peptide derivatives of present invention to endothelin, the affinity for an endothelin receptor and the constrictor activity to porcine coronary smooth muscles (according to the method described in (1) described above) were assayed. The affinity for the receptor was assayed by the following method.

endothelin receptor = assay: Assay of affinity for receptor (I125-ET-1 binding to porcine myocardial membrane fraction); details: ET-1 = 100
Procedure: A membrane fraction prepared from the porcine heart was diluted to 0.15 mg/ml by using a buffer solution [PBS (pH 7.4) containing 0.5 mM CaCl2, 1.0 mM MgCl2, 0.02% NaN3, 0.1% BSA (fraction V, Sigma), 0.1 mM PMSF and 0.1 μg/ml pepstatin (binding buffer)] for assay, and 100 μl of the resulting suspension of the membrane fraction was poured into each assay tube to use for assay. To this suspension of the membrane fraction were added 2 μl of an endothelin-1 solution labeled with 5 μM radioactive iodine. Further, 3 μl of a test peptide solution was added thereto, followed by maintenance at a temperature of 25° C. for 1 hour. Then, the resulting suspension was diluted with 900 μl of the buffer solution for assay cooled with ice, and thereafter separated into a supernatant and a precipitate by centrifugation at 12,000×g for 10 minutes. Cell membranes and an endothelin receptor embedded therein were contained in the precipitate, and radioactive iodine-labeled endothelin combined with the receptor was also recovered in the precipitate. Accordingly, the amount of radioactive iodine-labeled endothelin combined with the endothelin receptor was determined by measuring the amount of radioactive iodine contained in the precipitate with a gamma-ray counter. Compounds in which the affinity for the endothelin receptor is high and the maximum constriction is not high are antagonists. Contrary to this, compounds in which the affinity for the endothelin receptor is high and the maximum constriction is high are agonists.

CC[C@H](C)[C@H](NC(=O)[C@H](CC(=O)O)NC(=O)[C@H](CC(C)C)NC(=O)[C@H](Cc1c[nH]cn1)NC(=O)[C@@H]1CSSC[C@H](N)C(=O)N[C@@H](CO)C(=O)N[C@H]2CSSC[C@H](NC(=O)[C@H](CCC(=O)O)NC(=O)[C@H](CCCCN)NC(=O)[C@H](CC(=O)O)NC(=O)[C@H](CCSC)NC(=O)[C@H](CC(C)C)NC(=O)[C@H](CO)NC(=O)[C@H](CO)NC2=O)C(=O)N[C@@H](C(C)C)C(=O)N[C@@H](Cc2ccc(O)cc2)C(=O)N[C@@H](Cc2ccccc2)C(=O)N1)C(=O)N[C@H](C(=O)N[C@@H](Cc1c[nH]c2ccccc12)C(=O)O)[C@@H](C)CC [ET-1, endothelin-1, reference compound]
pEC50 (porcine coronary artery; read-out: EC50 (% KCL), concentration which induces 50% of the constriction due to 60 mM KCl): 8.80

CC[C@H](C)[C@H](NC(=O)[C@H](CC(=O)O)NC(=O)[C@H](CC(C)C)NC(=O)[C@H](Cc1c[nH]cn1)NC(=O)[C@@H]1CSSC[C@H](N)C(=O)N[C@@H](CO)C(=O)N[C@@H](Cc2c[nH]c3ccccc23)C(=O)N[C@@H](CO)C(=O)N[C@@H](CO)C(=O)N[C@@H](CC(C)C)C(=O)N[C@@H](CCSC)C(=O)N[C@@H](CC(=O)O)C(=O)N[C@@H](CCCCN)C(=O)N[C@@H](CCC(=O)O)C(=O)N[C@@H](C)C(=O)N[C@@H](C(C)C)C(=O)N[C@@H](Cc2ccc(O)cc2)C(=O)N[C@@H](Cc2ccccc2)C(=O)N1)C(=O)N[C@H](C(=O)N[C@@H](Cc1c[nH]c2ccccc12)C(=O)O)[C@@H](C)CC [Example 13, [Trp^3, Ala^11]-ET-1] (H-CSWSSLMDKEAVYFCHLDIIW-OH; disulfide 1-15)
Receptor binding activity (Relative potency) (endothelin receptor): 2.5 | Constrictor activity (Relative potency) (porcine coronary artery): < 0.1 | Maximum Constriction (% 60 mM KCl) (porcine coronary artery): 6 % 60 mM KCl

CC[C@H](C)[C@H](NC(=O)[C@H](C)NC(=O)[C@H](CC(C)C)NC(=O)[C@H](Cc1c[nH]cn1)NC(=O)[C@@H]1CSSC[C@H](N)C(=O)N[C@@H](CO)C(=O)N[C@@H](C)C(=O)N[C@@H](CO)C(=O)N[C@@H](CO)C(=O)N[C@@H](CC(C)C)C(=O)N[C@@H](CCSC)C(=O)N[C@@H](CC(=O)O)C(=O)N[C@@H](CCCCN)C(=O)N[C@@H](CCC(=O)O)C(=O)N[C@@H](C)C(=O)N[C@@H](C(C)C)C(=O)N[C@@H](Cc2ccc(O)cc2)C(=O)N[C@@H](Cc2ccccc2)C(=O)N1)C(=O)N[C@H](C(=O)N[C@@H](Cc1c[nH]c2ccccc12)C(=O)O)[C@@H](C)CC [Example 21, [Ala^3,11,18]-ET-1] (H-CSASSLMDKEAVYFCHLAIIW-OH; disulfide 1-15)
Receptor binding activity (Relative potency) (endothelin receptor): 1.59 | Constrictor activity (Relative potency) (porcine coronary artery): < 0.1 | Maximum Constriction (% 60 mM KCl) (porcine coronary artery): 6 % 60 mM KCl

CC[C@H](C)[C@H](NC(=O)[C@H](CC(C)C)NC(=O)[C@H](CC(C)C)NC(=O)[C@H](Cc1c[nH]cn1)NC(=O)[C@@H]1CSSC[C@H](N)C(=O)N[C@@H](CO)C(=O)N[C@@H](C)C(=O)N[C@@H](CO)C(=O)N[C@@H](CO)C(=O)N[C@@H](CC(C)C)C(=O)N[C@@H](CCSC)C(=O)N[C@@H](CC(=O)O)C(=O)N[C@@H](CCCCN)C(=O)N[C@@H](CCC(=O)O)C(=O)N[C@@H](C)C(=O)N[C@@H](C(C)C)C(=O)N[C@@H](Cc2ccc(O)cc2)C(=O)N[C@@H](Cc2ccccc2)C(=O)N1)C(=O)N[C@H](C(=O)N[C@@H](Cc1c[nH]c2ccccc12)C(=O)O)[C@@H](C)CC [Example 22, [Ala^3,11, Leu^18]-ET-1] (H-CSASSLMDKEAVYFCHLLIIW-OH; disulfide 1-15)
Receptor binding activity (Relative potency) (endothelin receptor): 1.27 | Constrictor activity (Relative potency) (porcine coronary artery): < 0.1 | Maximum Constriction (% 60 mM KCl) (porcine coronary artery): 3 % 60 mM KCl

CC[C@H](C)[C@H](NC(=O)[C@H](Cc1ccccc1)NC(=O)[C@H](CC(C)C)NC(=O)[C@H](Cc1c[nH]cn1)NC(=O)[C@@H]1CSSC[C@H](N)C(=O)N[C@@H](CO)C(=O)N[C@@H](C)C(=O)N[C@@H](CO)C(=O)N[C@@H](CO)C(=O)N[C@@H](CC(C)C)C(=O)N[C@@H](CCSC)C(=O)N[C@@H](CC(=O)O)C(=O)N[C@@H](CCCCN)C(=O)N[C@@H](CCC(=O)O)C(=O)N[C@@H](C)C(=O)N[C@@H](C(C)C)C(=O)N[C@@H](Cc2ccc(O)cc2)C(=O)N[C@@H](Cc2ccccc2)C(=O)N1)C(=O)N[C@H](C(=O)N[C@@H](Cc1c[nH]c2ccccc12)C(=O)O)[C@@H](C)CC [Example 23, [Ala^3,11, Phe^18]-ET-1] (H-CSASSLMDKEAVYFCHLFIIW-OH; disulfide 1-15)
Receptor binding activity (Relative potency) (endothelin receptor): 1.27 | Constrictor activity (Relative potency) (porcine coronary artery): < 0.1 | Maximum Constriction (% 60 mM KCl) (porcine coronary artery): 8 % 60 mM KCl

CC[C@H](C)[C@H](NC(=O)[C@H](C)NC(=O)[C@H](CC(C)C)NC(=O)[C@H](Cc1c[nH]cn1)NC(=O)[C@@H]1CSSC[C@H](N)C(=O)N[C@@H](CO)C(=O)N[C@H]2CSSC[C@H](NC(=O)[C@H](CCC(=O)O)NC(=O)[C@H](CCCCN)NC(=O)[C@H](CC(=O)O)NC(=O)[C@H](CCSC)NC(=O)[C@H](CC(C)C)NC(=O)[C@H](CO)NC(=O)[C@H](CO)NC2=O)C(=O)N[C@@H](C(C)C)C(=O)N[C@@H](Cc2ccc(O)cc2)C(=O)N[C@@H](Cc2ccccc2)C(=O)N1)C(=O)N[C@H](C(=O)N[C@@H](Cc1c[nH]c2ccccc12)C(=O)O)[C@@H](C)CC [Example 25, [Ala^18]-ET-1] (H-CSCSSLMDKECVYFCHLAIIW-OH; disulfide 1-15, 3-11)
Receptor binding activity (Relative potency) (endothelin receptor): 9.1 | Constrictor activity (Relative potency) (porcine coronary artery): 7.8 | Maximum Constriction (% 60 mM KCl) (porcine coronary artery): 62 % 60 mM KCl

CC[C@H](C)[C@H](NC(=O)[C@H](CC(C)C)NC(=O)[C@H](CC(C)C)NC(=O)[C@H](Cc1c[nH]cn1)NC(=O)[C@@H]1CSSC[C@H](N)C(=O)N[C@@H](CO)C(=O)N[C@H]2CSSC[C@H](NC(=O)[C@H](CCC(=O)O)NC(=O)[C@H](CCCCN)NC(=O)[C@H](CC(=O)O)NC(=O)[C@H](CCSC)NC(=O)[C@H](CC(C)C)NC(=O)[C@H](CO)NC(=O)[C@H](CO)NC2=O)C(=O)N[C@@H](C(C)C)C(=O)N[C@@H](Cc2ccc(O)cc2)C(=O)N[C@@H](Cc2ccccc2)C(=O)N1)C(=O)N[C@H](C(=O)N[C@@H](Cc1c[nH]c2ccccc12)C(=O)O)[C@@H](C)CC [Example 26, [Leu^18]-ET-1] (H-CSCSSLMDKECVYFCHLLIIW-OH; disulfide 1-15, 3-11)
Receptor binding activity (Relative potency) (endothelin receptor): 2.4 | Constrictor activity (Relative potency) (porcine coronary artery): < 0.1 | Maximum Constriction (% 60 mM KCl) (porcine coronary artery): 0 % 60 mM KCl

CC[C@H](C)[C@H](NC(=O)[C@@H](NC(=O)[C@H](CC(C)C)NC(=O)[C@H](Cc1c[nH]cn1)NC(=O)[C@@H]1CSSC[C@H](N)C(=O)N[C@@H](CO)C(=O)N[C@H]2CSSC[C@H](NC(=O)[C@H](CCC(=O)O)NC(=O)[C@H](CCCCN)NC(=O)[C@H](CC(=O)O)NC(=O)[C@H](CCSC)NC(=O)[C@H](CC(C)C)NC(=O)[C@H](CO)NC(=O)[C@H](CO)NC2=O)C(=O)N[C@@H](C(C)C)C(=O)N[C@@H](Cc2ccc(O)cc2)C(=O)N[C@@H](Cc2ccccc2)C(=O)N1)C(C)C)C(=O)N[C@H](C(=O)N[C@@H](Cc1c[nH]c2ccccc12)C(=O)O)[C@@H](C)CC [Example 27, [Val^18]-ET-1] (H-CSCSSLMDKECVYFCHLVIIW-OH; disulfide 1-15, 3-11)
Receptor binding activity (Relative potency) (endothelin receptor): 3.2 | Constrictor activity (Relative potency) (porcine coronary artery): < 0.1 | Maximum Constriction (% 60 mM KCl) (porcine coronary artery): 2 % 60 mM KCl

CC[C@H](C)[C@H](NC(=O)CNC(=O)[C@H](CC(C)C)NC(=O)[C@H](Cc1c[nH]cn1)NC(=O)[C@@H]1CSSC[C@H](N)C(=O)N[C@@H](CO)C(=O)N[C@H]2CSSC[C@H](NC(=O)[C@H](CCC(=O)O)NC(=O)[C@H](CCCCN)NC(=O)[C@H](CC(=O)O)NC(=O)[C@H](CCSC)NC(=O)[C@H](CC(C)C)NC(=O)[C@H](CO)NC(=O)[C@H](CO)NC2=O)C(=O)N[C@@H](C(C)C)C(=O)N[C@@H](Cc2ccc(O)cc2)C(=O)N[C@@H](Cc2ccccc2)C(=O)N1)C(=O)N[C@H](C(=O)N[C@@H](Cc1c[nH]c2ccccc12)C(=O)O)[C@@H](C)CC [Example 28, [Gly^18]-ET-1] (H-CSCSSLMDKECVYFCHLGIIW-OH; disulfide 1-15, 3-11)
Receptor binding activity (Relative potency) (endothelin receptor): 39.8 | Constrictor activity (Relative potency) (porcine coronary artery): 43 | Maximum Constriction (% 60 mM KCl) (porcine coronary artery): 99 % 60 mM KCl
